Reference: patent US12404239B2, “Modulators of BCL6 as ligand directed degraders” (Celgene Corporation, priority 2022, dated 2025)

Each compound was assayed against T1, BCL6 (Homo sapiens, UniProt P41182) (assay: BCL6_HiBiT degradation assay (2 h)). Details: DHL-4_BCL6_HiBiT cells.
T1 construct: HiBiT-tag knocked into endogenous BCL6 locus using CRISPR; endogenous in cells; host or cells: DHL-4_BCL6_HiBiT cells (CRISPR knock-in)
Format: cell-based
Method: A DHL-4 cell line with HiBiT-tag knocked into endogenous BCL6 locus using CRISPR was generated. The DHL-4_BCL6_HiBiT cells were dispensed into 384-well plates (Corning no. 3570) that were pre-spotted with compounds. Compounds were dispensed by an acoustic dispenser (ATS acoustic transfer system from EDC Biosystems) into a 384-well plate in a 10-point dose response curve using 3-fold dilutions starting at 1-10 μM and going down to […]. 25 μL of media (RPMI-1640+10% heat inactivated FBS+1×Pen/Strep) containing 2500 of DHL-4 was dispensed per well. Assay plates were incubated at 37° C. with 5% CO2 for 2 hours. After incubation, 25 μL of the Nano-Glo HiBiT lytic detection working solution (Promega, catalogue no. N3040, Madison, WI) was added to each well and incubated at room temperature for 15-30 min, protected from light. After 30 min, luminescence was read on an Envision or PHERAstar luminescence reader. To determine the EC50 value (the half-maximum effective concentration) and the level of the gradation (Yconstant) of a BCL6 degrader, luminescent signal normalized by DMSO control (Y) and compound concentration (x) was fitted using a four-parameter dose-response model (Y=(A+((B−A)/1+((C/x)^D) in Dotmatics. Fitted value C is the degradation EC50 and the minimum value A is the Y constant.
The degradation of BCL6 at 2 h in DHL-4 results are shown in Table 5, where EC50 is the half maximal effect and Ycon is the % remaining maximal effect.

YCon (% remaining maximal effect) | SMILES
(>60%) | CC1CN(c2ncc(Cl)c(Nc3ccc4c(c3)CC(=O)N4C)n2)CCCC1Nc1ccc2c(C3CCC(=O)NC3=O)nn(C)c2c1 (single isomer, unassigned) [Example 50, 3-(6-((1-(5-chloro-4-((1-methyl-2-oxoindolin-5-yl)amino)pyrimidin-2-yl)-3-methylazepan-4-yl)amino)-1-methyl-1H-indazol-3-yl)piperidine-2,6-dione]

Same assay, conditions: DHL-4_BCL6_HiBiT cells, read-out: YCon (% remaining maximal effect)

SMILES | Percent BCL6 remaining at maximal degradation (Ycon) [%]
C[C@H]1C[C@H](Nc2ccc3c([C@@H]4CCC(=O)NC4=O)nn(C)c3c2)CCN1c1ncc(Cl)c(Nc2ccc3c(c2)CC(=O)N3C)n1 (single isomer, unassigned) [Example 83] | 20 to 60
CN1C(=O)Cc2cc(Nc3nc(N4CCC(c5ccc6c(N7CCC(=O)NC7=O)nn(C)c6c5)CC4)ncc3Cl)ccc21 [Example 134, 1-(6-(1-(5-chloro-4-((1-methyl-2-oxoindolin-5-yl)amino)pyrimidin-2-yl)piperidin-4-yl)-1-methyl-1H-indazol-3-yl)dihydropyrimidine-2,4(1H,3H)-dione] | > 60
C[C@@H]1C[C@H](N(C)c2ccc3c(C4CCC(=O)NC4=O)nn(C)c3c2)CCN1c1ncc(Cl)c(Nc2ccc3c(c2)CC(=O)N3C)n1 (stereo partly drawn) [Example 21, 3-(6-(((2R,4R)-1-(5-chloro-4-((1-methyl-2-oxoindolin-5-yl)amino)pyrimidin-2-yl)-2-methylpiperidin-4-yl)(methyl)amino)-1-methyl-1H-indazol-3-yl)piperidine-2,6-dione] | > 60
C[C@@H]1CN(c2ncc(Cl)c(Nc3ccc4c(c3)CC(=O)N4)n2)CC[C@H]1Nc1ccc2c(C3CCC(=O)NC3=O)nn(C)c2c1 (stereo partly drawn) [Example 114, 3-(6-(((3R,4R)-1-(5-chloro-4-((2-oxoindolin-5-yl)amino)pyrimidin-2-yl)-3-methylpiperidin-4-yl)amino)-1-methyl-1H-indazol-3-yl)piperidine-2,6-dione] | < 20
CCN1C(=O)Cc2cc(Nc3nc(N4CCC(Nc5ccc6c(N7CCC(=O)NC7=O)nn(C)c6c5)CC4)ncc3Cl)ccc21 [Example 144, 1-(6-((1-(5-chloro-4-((1-ethyl-2-oxoindolin-5-yl)amino)pyrimidin-2-yl)piperidin-4-yl)amino)-1-methyl-1H-indazol-3-yl)dihydropyrimidine-2,4(1H,3H)-dione] | > 60
C[C@@H]1CN(c2ncc(Cl)c(Nc3ccc4c(c3)CC(=O)N4C)n2)C[C@@H](C)N1c1ccc2c([C@@H]3CCC(=O)NC3=O)nn(C)c2c1 (single isomer, unassigned) [Example 80] | > 60
CN1C(=O)Cc2cc(Nc3nc(N(C)C4CCN(c5cc6c(cn5)c(C5CCC(=O)NC5=O)nn6C)CC4)ncc3Cl)ccc21 (stereo not shown) [Example 60, 3-(6-(4-((5-chloro-4-((1-methyl-2-oxoindolin-5-yl)amino)pyrimidin-2-yl)(methyl)amino)piperidin-1-yl)-1-methyl-1H-pyrazolo[4,3-c]pyridin-3-yl)piperidine-2,6-dione] | > 60
C[C@@H]1C[C@H](Nc2ccc3c(C4CCC(=O)NC4=O)nn(C)c3c2)CCN1c1ncc(Cl)c(Nc2ccc3c(c2)CC(=O)N3C)n1 (stereo partly drawn) [Example 22, 3-(6-(((2R,4R)-1-(5-chloro-4-((1-methyl-2-oxoindolin-5-yl)amino)pyrimidin-2-yl)-2-methylpiperidin-4-yl)amino)-1-methyl-1H-indazol-3-yl)piperidine-2,6-dione] | > 60
C[C@@H]1CN(c2ncc(Cl)c(Nc3ccc4c(c3)CC(=O)N4C)n2)CC[C@H]1N(C)c1ccc2c(C3CCC(=O)NC3=O)nn(C)c2c1 (stereo partly drawn) [Example 73, 3-(6-(((3R,4R)-1-(5-chloro-4-((1-methyl-2-oxoindolin-5-yl)amino)pyrimidin-2-yl)-3-methylpiperidin-4-yl)(methyl)amino)-1-methyl-1H-indazol-3-yl)piperidine-2,6-dione] | < 20
CN1C(=O)Cc2cc(Nc3nc(N(C)C4CC5CCC(C4)N5c4ccc5c(C6CCC(=O)NC6=O)nn(C)c5c4)ncc3Cl)ccc21 [Example 15, 3-(6-((1R,3s,5S)-3-((5-chloro-4-((1-methyl-2-oxoindolin-5-yl)amino)pyrimidin-2-yl)(methyl)amino)-8-azabicyclo[3.2.1]octan-8-yl)-1-methyl-1H-indazol-3-yl)piperidine-2,6-dione] | > 60
C[C@@H]1CN(c2ncc(Cl)c(Nc3cc(F)c4c(c3)CC(=O)N4C)n2)CC[C@H]1Nc1ccc2c([C@H]3CCC(=O)NC3=O)nn(C)c2c1 (single isomer, unassigned) [Example 96] | < 20
CN1C(=O)Cc2cc(Nc3nc(NC4CCN(c5ccc6c(C7CCC(=O)NC7=O)nn(C)c6c5)CC4(F)F)ncc3Cl)ccc21 (stereo not shown) [Example 68, 3-(6-(4-((5-chloro-4-((1-methyl-2-oxoindolin-5-yl)amino)pyrimidin-2-yl)amino)-3,3-difluoropiperidin-1-yl)-1-methyl-1H-indazol-3-yl)piperidine-2,6-dione] | 20 to 60

Next, values leading:

Percent BCL6 remaining at maximal degradation (Ycon) [%] | SMILES
< 20 | CN1C(=O)Cc2cc(Nc3nc(N4CC[C@@H](Nc5ccc6c(C7CCC(=O)NC7=O)nn(C)c6c5)[C@H](O)C4)ncc3Cl)ccc21 (stereo partly drawn) [Example 33, 3-(6-(((3R,4R)-1-(5-chloro-4-((1-methyl-2-oxoindolin-5-yl)amino)pyrimidin-2-yl)-3-hydroxypiperidin-4-yl)amino)-1-methyl-1H-indazol-3-yl)piperidine-2,6-dione]
< 20 | CNCCN1C(=O)Cc2cc(Nc3nc(N4CC[C@@H](Nc5ccc6c([C@@H]7CCC(=O)NC7=O)nn(C)c6c5)[C@H](C)C4)ncc3Cl)ccc21 (single isomer, unassigned) [Example 106]
< 20 | COCCN1C(=O)Cc2cc(Nc3nc(N4CC[C@@H](Nc5ccc6c(C7CCC(=O)NC7=O)nn(C)c6c5)[C@H](C)C4)ncc3Cl)ccc21 (stereo partly drawn) [Example 75, 3-(6-(((3R,4R)-1-(5-chloro-4-((1-(2-methoxyethyl)-2-oxoindolin-5-yl)amino)pyrimidin-2-yl)-3-methylpiperidin-4-yl)amino)-1-methyl-1H-indazol-3-yl)piperidine-2,6-dione]
< 20 | C[C@@H]1CN(c2ncc(Cl)c(Nc3ccc4c(c3)CC(=O)N4C)n2)CC[C@H]1Nc1ccc2c(-n3ccc(=O)[nH]c3=O)nn(C)c2c1 [Example 139, 1-(6-(((3R,4R)-1-(5-chloro-4-((1-methyl-2-oxoindolin-5-yl)amino)pyrimidin-2-yl)-3-methylpiperidin-4-yl)amino)-1-methyl-1H-indazol-3-yl)pyrimidine-2,4(1H,3H)-dione]
< 20 | C[C@@H]1CN(c2ncc(Cl)c(Nc3cc4c(cc3F)N(C)C(=O)C4)n2)CC[C@H]1Nc1ccc2c([C@H]3CCC(=O)NC3=O)nn(C)c2c1 (single isomer, unassigned) [Example 93]
< 20 | C[C@@H]1CN(c2ncc(C#N)c(Nc3ccc4c(c3)CC(=O)N4C)n2)CC[C@H]1Nc1ccc2c(N3CCC(=O)NC3=O)nn(C)c2c1 [Example 132, 2-((3R,4R)-4-((3-(2,4-dioxotetrahydropyrimidin-1(2H)-yl)-1-methyl-1H-indazol-6-yl)amino)-3-methylpiperidin-1-yl)-4-((1-methyl-2-oxoindolin-5-yl)amino)pyrimidine-5-carbonitrile]
